According to ChEMBL document CHEMBL3596089, “Synthesis and characterization of novel oxazines and demonstration that they specifically target cyclooxygenase 2” (Bioorg Med Chem Lett, 2015):
pIC50: −log10 of the molar value.

Columns and labels:
[1] = biological target: Prostaglandin G/H synthase 1 (Homo sapiens, UniProt P23219); experiment: Inhibition of COX1 (unknown origin)
[2] = biological target: T1, Prostaglandin G/H synthase 2 (Homo sapiens, UniProt P35354); experiment: Inhibition of COX2 (unknown origin)
T1 sequence (P35354 whole entry): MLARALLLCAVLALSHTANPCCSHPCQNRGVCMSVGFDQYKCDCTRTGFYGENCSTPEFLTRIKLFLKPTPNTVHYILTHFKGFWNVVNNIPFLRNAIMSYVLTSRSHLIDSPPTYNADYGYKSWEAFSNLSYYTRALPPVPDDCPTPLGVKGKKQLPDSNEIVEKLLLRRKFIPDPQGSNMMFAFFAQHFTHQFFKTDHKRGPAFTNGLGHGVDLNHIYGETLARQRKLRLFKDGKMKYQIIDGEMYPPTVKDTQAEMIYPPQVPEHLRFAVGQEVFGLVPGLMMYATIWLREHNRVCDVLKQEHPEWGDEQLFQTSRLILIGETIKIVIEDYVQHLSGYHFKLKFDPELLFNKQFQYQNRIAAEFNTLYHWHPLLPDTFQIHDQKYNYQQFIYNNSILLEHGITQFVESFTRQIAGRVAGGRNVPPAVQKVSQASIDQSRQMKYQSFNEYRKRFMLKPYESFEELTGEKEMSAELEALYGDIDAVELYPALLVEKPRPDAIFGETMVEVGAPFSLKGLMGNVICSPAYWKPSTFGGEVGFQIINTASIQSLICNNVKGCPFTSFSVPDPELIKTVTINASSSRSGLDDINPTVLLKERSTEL

Chain of Prostaglandin G/H synthase 1 (P23219 whole entry): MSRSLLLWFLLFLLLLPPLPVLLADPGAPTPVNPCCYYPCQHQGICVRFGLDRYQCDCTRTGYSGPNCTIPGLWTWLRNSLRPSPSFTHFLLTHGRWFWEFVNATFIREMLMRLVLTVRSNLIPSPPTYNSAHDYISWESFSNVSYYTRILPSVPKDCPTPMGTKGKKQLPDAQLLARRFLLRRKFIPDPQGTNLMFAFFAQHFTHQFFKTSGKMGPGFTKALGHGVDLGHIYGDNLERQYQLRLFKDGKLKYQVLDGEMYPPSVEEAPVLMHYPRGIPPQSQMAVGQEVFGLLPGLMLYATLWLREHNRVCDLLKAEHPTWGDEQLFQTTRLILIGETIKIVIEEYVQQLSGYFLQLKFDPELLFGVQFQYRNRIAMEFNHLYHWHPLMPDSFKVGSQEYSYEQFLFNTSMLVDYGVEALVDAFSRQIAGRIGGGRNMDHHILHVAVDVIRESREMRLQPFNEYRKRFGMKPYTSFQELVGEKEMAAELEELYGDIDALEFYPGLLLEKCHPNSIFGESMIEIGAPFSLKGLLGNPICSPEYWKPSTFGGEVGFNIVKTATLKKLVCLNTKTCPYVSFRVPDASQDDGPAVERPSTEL

SMILES | pIC50 [1] | pIC50 [2]
Fc1ccc2c(C3CCN(CC4=NO[C@@H]5CCCC[C@@H]5[C@H]4c4ccccc4)CC3)noc2c1 | 4.37 | 5.33
CC1(C)CC(c2ccccc2)C(CN2CCC(c3noc4cc(F)ccc34)CC2)=NO1 (stereo not given) | 4.40 | 4.98
COc1ccc(N2CCN(CC3=NOC(C)(C)CC3c3ccccc3)CC2)cc1 (stereo not given) | 4.30 | 5.59
COc1ccc(N2CCN(CC3=NO[C@@H]4CCCC[C@@H]4[C@H]3c3ccccc3)CC2)cc1 | 4.45 | 5.74
COc1ccc([C@H]2C(Cn3c4ccccc4c4ccccc43)=NO[C@@H]3CCCC[C@H]23)cc1 | 4.29 | 5.23
CC1(C)CC(c2ccc(Cl)cc2)C(CN2CCC(c3noc4cc(F)ccc34)CC2)=NO1 (stereo not given) | 4.40 | 5.39
CC1(C)CC(c2ccccc2)C(CN2CCN(c3cccc(Cl)c3Cl)CC2)=NO1 (stereo not given) | 4.26 | 5.17
COc1ccc([C@H]2C(CN3CCN(c4ccc(OC)cc4)CC3)=NO[C@@H]3CCCC[C@H]23)cc1 | 4.39 | 5.77
c1ccc([C@H]2C(Cn3c4ccccc4c4ccccc43)=NO[C@@H]3CCCC[C@H]23)cc1 | 4.22 | 5.00
CC1(C)CC(c2ccc(Cl)cc2)C(Cn2c3ccccc3c3ccccc32)=NO1 (stereo not given) | 4.39 | 5.41
